In ChEMBL document CHEMBL5120859, “Optimization of 4-arylthiophene-3-carboxylic acid derivatives as inhibitors of ANO1: Lead optimization studies toward their analgesic efficacy for inflammatory pain” (Eur J Med Chem, 2022):
Active and inactive are the calls of the source. The calls are words filed in the database; no cut-off is given here.

Legend:
[1] = MRT (0 to t) in C57BL/6 mouse at 40 mg/kg,IG measured upto 24 hrs by HPLC-MS/MS analysis; type: ADME, organism-based; conditions: in vivo, po
[2] = test system: Mus musculus; assay: Analgesic activity in C57BL/6 mouse model of capsaicin-induced allodynia assessed as reduction on foot licking pain response at 80 mg/kg,po measured after 5 mins; type: functional, organism-based
[3] = Ratio of drug concentration in brain to plasma in C57BL/6 mouse at 40 mg/kg,IG measured after 24 hrs by HPLC analysis; type: ADME, organism-based; conditions: po
[4] = target: Sodium channel protein type 7 subunit alpha (Homo sapiens) (UniProt Q01118); assay: Inhibition of Nav1.7 (unknown origin) in half-inactivated condition at 30 uM by whole cell patch clamp electrophysiology relative to control
[5] = Acute toxicity in C57BL/6 mouse assessed as toxic symptoms at 1000 mg/kg,po measured after 24 hrs; type: organism-based; conditions: in vivo
[6] = Brain concentration in C57BL/6 mouse at 40 mg/kg,IG measured after 24 hrs by HPLC analysis; type: ADME, organism-based; conditions: po, read-out: Ct
[7] = Ratio of drug concentration in brain to plasma in C57BL/6 mouse at 40 mg/kg,IG measured after 0.25 hrs by HPLC analysis; type: ADME, organism-based; conditions: po
[8] = target: T1, Anoctamin-2 (Homo sapiens, UniProt Q9NQ90); assay: Inhibition of human ANO2 expressed in HEK293 cells incubated for 5 mins by whole cell patch clamp electrophysiology; type: cell-based
T1 sequence (Q9NQ90 whole entry): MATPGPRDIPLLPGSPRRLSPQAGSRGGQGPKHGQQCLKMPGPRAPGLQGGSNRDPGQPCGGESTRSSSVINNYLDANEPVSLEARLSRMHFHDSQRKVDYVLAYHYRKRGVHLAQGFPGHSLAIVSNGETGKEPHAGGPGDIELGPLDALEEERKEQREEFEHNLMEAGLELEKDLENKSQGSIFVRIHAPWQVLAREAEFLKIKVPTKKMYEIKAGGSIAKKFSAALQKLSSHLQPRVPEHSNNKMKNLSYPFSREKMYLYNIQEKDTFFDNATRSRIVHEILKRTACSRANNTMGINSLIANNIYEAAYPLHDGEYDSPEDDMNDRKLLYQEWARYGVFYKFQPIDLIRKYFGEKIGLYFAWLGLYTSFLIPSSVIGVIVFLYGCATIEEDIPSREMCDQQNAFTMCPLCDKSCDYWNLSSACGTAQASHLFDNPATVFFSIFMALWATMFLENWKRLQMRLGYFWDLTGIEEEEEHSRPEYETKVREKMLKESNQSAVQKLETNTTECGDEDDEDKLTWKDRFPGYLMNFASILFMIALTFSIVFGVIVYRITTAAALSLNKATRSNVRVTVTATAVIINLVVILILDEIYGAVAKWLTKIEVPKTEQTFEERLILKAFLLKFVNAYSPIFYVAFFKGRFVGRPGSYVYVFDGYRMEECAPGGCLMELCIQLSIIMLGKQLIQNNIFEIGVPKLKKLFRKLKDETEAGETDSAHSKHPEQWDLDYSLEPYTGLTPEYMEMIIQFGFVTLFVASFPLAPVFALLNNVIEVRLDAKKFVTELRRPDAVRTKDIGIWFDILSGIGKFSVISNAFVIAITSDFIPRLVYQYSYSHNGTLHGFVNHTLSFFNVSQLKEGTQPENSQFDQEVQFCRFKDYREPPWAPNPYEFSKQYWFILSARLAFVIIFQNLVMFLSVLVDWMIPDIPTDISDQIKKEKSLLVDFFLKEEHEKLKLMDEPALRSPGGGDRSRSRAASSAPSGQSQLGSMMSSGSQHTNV

[9] = target: Sodium channel protein type 7 subunit alpha (Homo sapiens) (UniProt Q01118); assay: Inhibition of Nav1.7 (unknown origin) in resting condition at 30 uM by whole cell patch clamp electrophysiology relative to control
[10] = Acute toxicity in C57BL/6 mouse assessed as animal survival at 1000 mg/kg,po measured after 24 hrs; type: organism-based; conditions: in vivo
[11] = Clearance in C57BL/6 mouse at 40 mg/kg,iv measured upto 24 hrs by HPLC-MS/MS analysis; type: ADME, organism-based; conditions: in vivo
[12] = test system: Mus musculus; assay: Analgesic activity in C57BL/6 mouse model of formalin-induced allodynia assessed as reduction on foot licking pain response at 40 to 80 mg/kg,po measured after 10 mins; type: functional, organism-based; conditions: dose 40-80 mg/kg
[13] = test system: Mus musculus; assay: Analgesic activity in C57BL/6 mouse model of CFA-induced mechanical hyperalgesia assessed as […] at 40 to 80 mg/kg,po measured after 7 days by Von Frey test; type: functional, organism-based; conditions: dose 40-80 mg/kg, time 7.0 day
[14] = Cmax in C57BL/6 mouse at 80 mg/kg,IG measured upto 24 hrs by HPLC-MS/MS analysis; type: ADME, organism-based; design: dose 80 mg/kg, time < 24 hrs, route ig; conditions: in vivo, po
[15] = AUC (0 to t) in C57BL/6 mouse at 40 mg/kg,iv measured upto 24 hrs by HPLC-MS/MS analysis; type: ADME, organism-based; design: dose 40 mg/kg, time < 24 hrs, route iv; conditions: in vivo
[16] = Bioavailability in C57BL/6 mouse at 80 mg/kg,IG measured upto 24 hrs by HPLC-MS/MS analysis; type: ADME, organism-based; conditions: in vivo, po
[17] = test system: Mus musculus; assay: Analgesic activity in C57BL/6 mouse model of formalin-induced allodynia assessed as reduction on foot licking pain response at 40 to 80 mg/kg,po measured at 15 to 60 mins; type: functional, organism-based; conditions: dose 40-80 mg/kg, time 15-60 min, DDE = dose-dependent effect
[18] = Volume of distribution at steady state in C57BL/6 mouse at 40 mg/kg,iv measured upto 24 hrs by HPLC-MS/MS analysis; type: ADME, organism-based; conditions: in vivo, read-out: Vdss
[19] = Plasma concentration in C57BL/6 mouse at 40 mg/kg,IG measured after 0.25 hrs by HPLC analysis; type: ADME, organism-based; conditions: po

Chain of Sodium channel protein type 7 subunit alpha (Homo sapiens) (Q01118 whole entry): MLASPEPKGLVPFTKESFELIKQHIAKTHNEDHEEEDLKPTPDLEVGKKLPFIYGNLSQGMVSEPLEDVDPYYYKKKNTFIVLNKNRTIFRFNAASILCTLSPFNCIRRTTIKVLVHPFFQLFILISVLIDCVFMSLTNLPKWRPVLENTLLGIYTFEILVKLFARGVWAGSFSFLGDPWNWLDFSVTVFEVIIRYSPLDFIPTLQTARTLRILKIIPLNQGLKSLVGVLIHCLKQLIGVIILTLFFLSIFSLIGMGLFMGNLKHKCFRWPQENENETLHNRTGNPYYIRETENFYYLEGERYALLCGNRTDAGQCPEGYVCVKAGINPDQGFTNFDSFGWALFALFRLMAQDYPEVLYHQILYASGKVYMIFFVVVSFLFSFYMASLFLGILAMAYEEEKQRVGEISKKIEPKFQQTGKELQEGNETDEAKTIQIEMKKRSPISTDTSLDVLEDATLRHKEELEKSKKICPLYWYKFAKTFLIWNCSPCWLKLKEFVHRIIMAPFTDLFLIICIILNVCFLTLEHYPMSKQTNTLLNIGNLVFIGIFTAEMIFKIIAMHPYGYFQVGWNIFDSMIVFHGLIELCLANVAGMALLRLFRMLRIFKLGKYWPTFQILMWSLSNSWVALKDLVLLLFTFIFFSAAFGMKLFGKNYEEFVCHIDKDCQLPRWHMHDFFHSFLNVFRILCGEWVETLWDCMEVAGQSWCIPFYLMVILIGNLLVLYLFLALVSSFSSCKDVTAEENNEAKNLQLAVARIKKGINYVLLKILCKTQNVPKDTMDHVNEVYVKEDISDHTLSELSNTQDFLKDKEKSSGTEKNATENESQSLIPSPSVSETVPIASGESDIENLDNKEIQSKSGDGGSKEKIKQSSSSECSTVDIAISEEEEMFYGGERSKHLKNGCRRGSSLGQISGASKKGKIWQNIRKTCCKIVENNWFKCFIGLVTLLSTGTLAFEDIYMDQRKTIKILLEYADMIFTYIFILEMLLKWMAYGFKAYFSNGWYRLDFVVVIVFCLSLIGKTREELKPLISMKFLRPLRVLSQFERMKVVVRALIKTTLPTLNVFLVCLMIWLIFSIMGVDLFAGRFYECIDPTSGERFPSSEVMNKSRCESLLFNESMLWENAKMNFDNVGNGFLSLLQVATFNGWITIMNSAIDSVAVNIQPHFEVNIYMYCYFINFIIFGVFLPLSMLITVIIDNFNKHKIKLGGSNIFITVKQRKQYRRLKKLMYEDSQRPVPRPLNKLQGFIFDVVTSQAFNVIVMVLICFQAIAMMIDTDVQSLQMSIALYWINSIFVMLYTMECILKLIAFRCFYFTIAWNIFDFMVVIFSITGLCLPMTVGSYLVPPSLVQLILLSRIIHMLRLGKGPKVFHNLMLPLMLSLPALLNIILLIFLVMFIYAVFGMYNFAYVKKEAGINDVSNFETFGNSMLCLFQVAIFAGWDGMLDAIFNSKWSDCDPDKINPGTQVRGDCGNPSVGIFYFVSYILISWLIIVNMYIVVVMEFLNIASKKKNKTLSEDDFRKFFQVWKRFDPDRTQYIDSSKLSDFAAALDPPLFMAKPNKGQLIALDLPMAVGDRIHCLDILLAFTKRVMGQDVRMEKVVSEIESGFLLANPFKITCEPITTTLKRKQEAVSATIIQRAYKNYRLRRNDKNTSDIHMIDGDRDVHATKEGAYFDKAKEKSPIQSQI

O=C(Nc1scc(-c2ccc(Cl)cc2)c1C(=O)O)c1cc(F)ccc1F
MRT last at 24 h [1]: 5.4 h
Activity [2]: Active
Ratio [3]: 4.5%
inhibition [4]: 6.5%
Activity [5]: Non-Toxic
concentration at 24 h [6]: 74.8 ng/g
Ratio [7]: 1.5%
IC50 [8]: 8.7 µM
inhibition [9]: 4.4%
Activity [10]: Non-Toxic
clearance [11]: 1.73 mL/min/kg
Activity [12]: Active
Activity [13]: Active
Cmax [14]: 130 µg/mL
AUC(0-t) at 24 h [15]: 350 µg·h/mL
bioavailability [16]: 85.1%
Activity [17]: Dde
Vd [18]: 0.8 L/kg
concentration at 0.25 h [19]: 97.7 µg/mL
